{
  "source": "patent US20210137992A1",
  "about": "“HYPOXIA-INDUCIBLE FACTOR-2A AS A TARGET IN PREVENTION/TREATMENT OF PARKINSON'S DISEASE” (QIngdao University, priority 2019, published 2021)",
  "key": {"[1]": {"system": "HIF-2α", "assay": "Western blot of HIF-2α protein expression in primary cultured astrocytes", "assay_type": "cell-based", "description": "(§1) The astrocytes were inoculated into a six-well plate pre-coated with polylysine at a density of 1.5×10^5/ml. In order to detect the activation of HIF-1α and HIF-2α by 6-OHDA and the corresponding protein expression of DMT1 and FPN1, the cells were divided into groups and treated with drugs. After being treated with 10 μM of 6-OHDA for 24 h, the cells were collected to extract the total protein.\n(§2) In order to test the influence of inhibiting the activation of HIF-2α on the protein expression of DMT1 and FPN1 in the astrocytes, the cells were pre-treated with 10 μM of the HIF-2α translation inhibitor for 24 h, and then added with 10 μM of 6-OHDA for co-action for 24 h. Then the total protein was extracted.\n(§3) The activation and inhibition of HIF-1α and HIF-2α by 6-OHDA and the corresponding protein expression of DMT1 and FPN1 were detected by Western blots.\n(§4) After drug treatment of the cells, the medium was completely blotted up, the cells were washed with pre-chilled PBS for three times, and 100 μl of the cell lysis buffer: RIPA lysis buffer (strong) was added to each well, and the cells were lysed on ice for 0.5 h.\n(§5) The concentration of the extracted protein was detected by the BCA protein quantitative kit. The protein was sub-packaged according to 30 μg per serving, brought to the same volume with 0.01M PBS, then added with a 4× loading buffer and mixed well, subjected to a water batch above 95° C. for 5 min to denature the protein, and cryopreserved in the refrigerator at −80° C.\n(§6) The corresponding primary antibodies were diluted with 5% skim milk: HIF-1α was diluted at 1:1000, HIF-2α was diluted at 1:1000, DMT1 was diluted at 1:800, FPN1 was diluted at 1:800, β-actin was diluted at 1:10000, and incubated in the shaker at 4° C. overnight. It was rinsed with the 1×TBST buffer for 3 times, each time for 10 min.\n(§7) The intensity of bands was subjected to density analysis with the Vision Works LS image acquisition and analysis software."}, "[2]": {"system": "DMT1", "assay": "Western blot of DMT1 protein expression in primary cultured astrocytes", "assay_type": "cell-based, Wistar suckling rats", "description": "as §1, §2\n(§8) In order to test the influence of inhibiting the activation of HIF-1α on the protein expression of DMT1 and FPN1 in the astrocytes, the cells were pre-treated with 10 μM of Bay87-2243 for 48 h, and then added with 10 μM of 6-OHDA for co-action for 24 h. Then the total protein was extracted.\nas §3, §4, §5, §6, §7"}, "[3]": {"system": "FPN1", "assay": "Western blot of FPN1 protein expression in primary cultured astrocytes", "assay_type": "cell-based, Wistar suckling rats", "description": "as §1, §2, §8, §3, §4, §5, §6, §7"}, "[4]": {"system": "primary cultured astrocytes", "assay": "Calcein fluorescence ferrous iron influx (transport-in) assay", "assay_type": "cell-based, Wistar suckling mice", "conditions": "1 mM ferrous iron perfusion", "description": "(§9) The primary-cultured astrocytes were plated at a plating density of 5×10^4/well in a 24-well plate with a polylysine-treated cover slip placed in each well. After the astrocytes were cultured for 48 h, the medium was blotted up, and the cells were rinsed gently with the DMEM/F12 basic medium preheated at 37° C. The cells were then treated in groups with 6 wells in each group, and were continually cultured in a 5% CO2 incubator at 37° C. for 24 h. The medium was blotted up. The cells were rinsed once with HBS preheated at 37° C., added with calcein (0.5 μM), placed in an incubator at 37° C. for 0.5 h for loading, then rinsed with HBS for three times, and then detected.\nCalcein-AM was a membrane-permeable non-fluorescent molecule. […] Calcein had high affinity for all of divalent metal ions, and could be combined with various divalent metal ions in the cells and then converted into non-fluorescent substances, which leads to the quenching of the fluorescence. In this experimental system, other divalent metal ions such as Mg^2+ and Ca^2+ were removed, and only a Fe^2+ solution was used for perfusion to ensure that the fluorescence change of intracellular calcein was caused by its binding with Fe^2+. The level of cheatable iron in the cells was estimated by determining the decrease degree of the fluorescence intensity. […]"}, "[5]": {"system": "primary cultured astrocytes", "assay": "Calcein fluorescence iron efflux (transport-out) assay with DFO perfusion", "assay_type": "cell-based, Wistar suckling rats", "conditions": "1 mM DFO perfusion", "description": "as §9\nCalcein-AM was a membrane-permeable non-fluorescent molecule. […] Calcein had high affinity for all of divalent metal ions, and could be combined with various divalent metal ions in the cells and then converted into non-fluorescent substances, which leads to the quenching of the fluorescence. […] The level of cheatable iron in the cells was estimated by determining the decrease degree of the fluorescence intensity. The fluorescence intensity of calcein was inversely proportional to the content of free iron in the cells. When the level of iron in the cells was increased, the free iron combined with calcein, the fluorescence was quenched, and thus the fluorescence intensity was decreased, otherwise it was increased. […]"}, "[6]": {"system": "HIF-1α", "assay": "Western blot of HIF-1α protein expression in primary cultured astrocytes", "assay_type": "cell-based, Wistar suckling rats", "description": "as §1, §8, §3, §4, §5, §6, §7"}, "[7]": {"system": "HIF-1α", "assay": "Western blot of HIF-1α protein expression in primary cultured VM neurons", "assay_type": "cell-based, Wistar mice", "conditions": "10 μM 6-OHDA for 24 h, compared to control", "description": "(§10) In order to detect the activation of HIF-1α and HIF-2α in the VM neurons by 6-OHDA, the cells were divided into groups and treated with drugs. After being treated with 10 μM of 6-OHDA for 24 h, the cells were collected to extract the total protein.\nas §4, §5, §6, §7"}, "[8]": {"system": "HIF-2α", "assay": "Western blot of HIF-2α protein expression in primary cultured VM neurons", "assay_type": "cell-based, Wistar mice", "conditions": "10 μM 6-OHDA for 24 h, compared to control", "description": "as §10, §4, §5, §6, §7"}, "[9]": {"conditions": "astrocytes treated with 10 μM HIF-2α inhibitor alone, compared to control group"}, "[10]": {"conditions": "astrocytes, 10 μM HIF-2α inhibitor pretreatment 24 h then 10 μM 6-OHDA 24 h, compared with 6-OHDA group"}, "[11]": {"conditions": "pretreatment with 10 μM HIF-2α inhibitor for 24 h, 10 μM 6-OHDA"}, "[12]": {"conditions": "primary cultured astrocytes, 10 μM 6-OHDA for 24 h, compared with control"}, "[13]": {"conditions": "astrocytes, 10 μM 6-OHDA for 24 h, compared with control group"}, "[14]": {"conditions": "astrocytes treated with 10 μM BAY 87-2243 alone, compared with control group"}, "[15]": {"conditions": "astrocytes, 10 μM BAY 87-2243 pretreatment 48 h then 10 μM 6-OHDA 24 h, compared to 6-OHDA group"}},
  "data": [
    {"smiles": "COC(=O)c1sccc1N/N=C(\\C#N)S(C)(=O)=O", "note": "[HIF-2α inhibitor]", "values": [
      {"measurement": "expression of HIF-2α", "setting": "[1]; astrocytes treated with 10 μM HIF-2α inhibitor alone, compared with control group", "result": "decreased"},
      {"measurement": "expression of HIF-2α", "setting": "[1]; astrocytes, 10 μM HIF-2α inhibitor pretreatment 24 h then co-treatment with 10 μM 6-OHDA 24 h, compared with 6-OHDA group", "result": "decreased"},
      {"measurement": "expression of DMT1", "setting": "[2]; [9]", "result": "decreased"},
      {"measurement": "expression of DMT1", "setting": "[2]; [10]", "result": "decreased"},
      {"measurement": "expression of FPN1", "setting": "[3]; [9]", "result": "decreased"},
      {"measurement": "expression of FPN1", "setting": "[3]; [10]", "result": "decreased"},
      {"measurement": "effect on 6-OHDA-increased ferrous iron influx (calcein fluorescence)", "setting": "[4]; [11]", "result": "fully blocked"},
      {"measurement": "effect on 6-OHDA-caused ferrous iron efflux (calcein fluorescence)", "setting": "[5]; [11]", "result": "fully blocked"}
    ]},
    {"smiles": "NCCc1cc(O)c(O)cc1O", "note": "[6-OHDA, 6-hydroxydopamine]", "values": [
      {"measurement": "expression of HIF-1α", "setting": "[6]; [12]", "result": "increased"},
      {"measurement": "expression of HIF-2α", "setting": "[1]; [12]", "result": "increased"},
      {"measurement": "protein level of HIF-1α", "setting": "[7]", "result": "remained unchanged"},
      {"measurement": "protein level of HIF-2α", "setting": "[8]", "result": "remained unchanged"},
      {"measurement": "expression of DMT1", "setting": "[2]; [13]", "result": "increased"},
      {"measurement": "expression of FPN1", "setting": "[3]; [13]", "result": "increased"},
      {"measurement": "ferrous iron influx (calcein fluorescence quenching)", "setting": "[4]; cells treated with 10 μM 6-OHDA, compared with controls", "result": "more rapid fluorescence quenching"},
      {"measurement": "iron efflux (calcein fluorescence intensity)", "setting": "[5]; 10 μM 6-OHDA-treated group", "result": "marked increase in fluorescence intensity"}
    ]},
    {"smiles": "Cc1cc(-c2nc(-c3ccc(OC(F)(F)F)cc3)no2)nn1Cc1ccnc(N2CCN(C3CC3)CC2)c1", "note": "[BAY 87-2243]", "values": [
      {"measurement": "expression of HIF-1α", "setting": "[6]; [14]", "result": "decreased"},
      {"measurement": "expression of HIF-1α", "setting": "[6]; astrocytes, 10 μM BAY 87-2243 pretreatment 48 h then co-treatment with 10 μM 6-OHDA 24 h, compared with 6-OHDA group", "result": "decreased"},
      {"measurement": "expression of DMT1", "setting": "[2]; [14]", "result": "remained unchanged"},
      {"measurement": "expression of DMT1", "setting": "[2]; [15]", "result": "did not change"},
      {"measurement": "expression of FPN1", "setting": "[3]; [14]", "result": "remained unchanged"},
      {"measurement": "expression of FPN1", "setting": "[3]; [15]", "result": "did not change"}
    ]}
  ]
}
